The results in this text go back to ChEMBL document CHEMBL4017490, “Design, Synthesis, and Pharmacological Evaluation of Novel Multisubstituted Pyridin-3-amine Derivatives as Multitargeted Protein Kinase Inhibitors for the Treatment of Non-Small Cell Lung Cancer” (J Med Chem, 2017).

The structures appear in SMILES notation.

Data set [1] in a line: Half life in CD-1 mouse at 5 mg/kg, iv by LC-MS/MS method. Type of data set: ADME, organism-based. The conditions noted are these: in vivo.
Data set [2] can be described thus: Tmax in Sprague-Dawley rat at 20 mg/kg, po by LC-MS/MS method. The format is ADME, organism-based. The settings on record: in vivo.
The nature of data set [3]: Tmax in Sprague-Dawley rat at 10 mg/kg, iv by LC-MS/MS method. The format is ADME, organism-based. The settings on record: in vivo.
Data set [4] in a line: Tmax in CD-1 mouse at 20 mg/kg, po by LC-MS/MS method. The format is ADME, organism-based. The conditions noted are these: in vivo.
The nature of data set [5]: Cmax in Sprague-Dawley rat at 20 mg/kg, po by LC-MS/MS method. The conditions noted are these: in vivo. Type of data set: ADME, organism-based. More on the design: dose 20 mg/kg, route oral.
Data set [6] is described as follows: Cmax in Sprague-Dawley rat at 10 mg/kg, iv by LC-MS/MS method. The format is ADME, organism-based. The conditions noted are these: in vivo. More on the design: dose 10 mg/kg, route intravenous.
Data set [7] can be described thus: Cmax in CD-1 mouse at 20 mg/kg, po by LC-MS/MS method. Type of data set: ADME, organism-based. More on the design: dose 20 mg/kg, route oral. The settings on record: in vivo.
The nature of data set [8]: AUC (0 to t) in Sprague-Dawley rat at 20 mg/kg, po by LC-MS/MS method. Type of data set: ADME, organism-based. The conditions noted are these: in vivo.
The nature of data set [9]: AUC (0 to t) in CD-1 mouse at 20 mg/kg, po by LC-MS/MS method. Type of data set: ADME, organism-based. The conditions noted are these: in vivo.
Data set [10] is described as follows: MRT in CD-1 mouse at 20 mg/kg, po by LC-MS/MS method. Type of data set: ADME, organism-based. The settings on record: in vivo.
Data set [11] is described as follows: AUC (0 to infinity) in Sprague-Dawley rat at 20 mg/kg, po by LC-MS/MS method. The format is ADME, organism-based. More on the design: dose 20 mg/kg, route oral, time infinity. The settings on record: in vivo.
Data set [12] in a line: AUC (0 to infinity) in Sprague-Dawley rat at 10 mg/kg, iv by LC-MS/MS method. More on the design: dose 10 mg/kg, time infinity, route intravenous. The settings on record: in vivo. Type of data set: ADME, organism-based.
Data set [13] is described as follows: MRT in Sprague-Dawley rat at 10 mg/kg, iv by LC-MS/MS method. The format is ADME, organism-based. The conditions noted are these: in vivo.
Data set [14] is described as follows: Half life in CD-1 mouse at 20 mg/kg, po by LC-MS/MS method. The conditions noted are these: in vivo. Type of data set: ADME, organism-based.
Data set [15] is described as follows: Oral bioavailability in Sprague-Dawley rat at 20 mg/kg by LC-MS/MS method. The format is ADME, organism-based. The settings on record: in vivo.
Data set [16] in a line: Apparent clearance in Sprague-Dawley rat at 10 mg/kg, iv by LC-MS/MS method. The conditions noted are these: in vivo, read-out: CL(app) (converted). The format is ADME, organism-based.
Another data set has as its system NCI-H1581. Put plainly: Antitumor activity against human NCI-H1581 cells xenografted in nude mouse assessed as tumor growth inhibition at 5 mg/kg, po qd administered for 14 days measured twice per week during compound dosing. Type of data set: functional. The conditions noted are these: 336 h, read-out: TGI. For orientation: A xenograft is tissue or cells of one species grown in another, often human tumour cells in immunodeficient mice.

Data set [17] is described as follows: Protein binding in plasma (unknown origin). Type of data set: ADME, cell-free. The settings on record: read-out: PPB (converted).
A short description of data set [18]: Inhibition of FGFR3 mutant in human UM-UC-14 cells assessed as inhibition of cell proliferation after 72 hrs by cell counting kit-8 assay. The conditions noted are these: UMUC14, 72 h. The format is cell-based. (Tetrazolium dyes change colour on reduction, which living cells bring about.)
In data set [19] the test system is Mus musculus. Put plainly: Toxicity in nude mouse xenografted with human NCI-H1581 cells assessed as emaciation at 20 mg/kg, po qd administered for 14 days. The settings on record: in vivo, 336 h. The format is organism-based.
In data set [20] the test system is Mus musculus. In words: Unbound Cmax in CD-1 mouse at 20 mg/kg, po by LC-MS/MS method. Type of data set: ADME, organism-based. The settings on record: in vivo.
In data set [21] the test system is Mus musculus. In words: Toxicity in nude mouse xenografted with human NCI-H1581 cells assessed as body weight loss at 20 mg/kg, po qd administered for 14 days. The format is organism-based. The settings on record: in vivo, 336 h.

Broadly, the half-life is how long it takes for the measured level to halve. Lower therefore signals fast loss. For orientation: Tmax means the time from dosing to the highest level. For orientation: Cmax means the highest concentration seen after dosing. As a reminder, the AUC(0-t) is the area under the concentration-time curve up to a stated or last time point. The low end stands for less exposure, the high end for more exposure. What is called MRT is the average time that molecules of a dose stay in the body. Usually AUC(0-inf) stands for total exposure, with the tail of the curve extrapolated. A higher AUC(0-inf) goes with high exposure. As a reminder, the bioavailability is dose-corrected exposure relative to a reference, in per cent. Low values mean little systemic uptake, high ones much systemic uptake. The term IC50 denotes the concentration needed to halve the response being measured. For the compound `Cc1n[nH]c2ccc(-c3cc(N[C@@H](CO)c4ccccc4)cnc3-c3cc(F)ccc3O)cc12`, the half-life was 2.5 h in data set [1] and 2.72 h in data set [14]. In addition, the Tmax in data set [2] stood at 1 h; in data set [3], 0.25 h; in data set [4], 0.42 h. Besides, the Cmax was 2080 ng/mL in data set [5], 6540 ng/mL in data set [6] and 961 ng/mL in data set [7]. For the same compound, the AUC(0-t) in data set [8] is 16600 ng·h/mL; in [9], 2400 ng·h/mL. The MRT in data set [10] stood at 3.59 h; in data set [13], 3.41 h. The area under the curve AUC(0-inf) in data set [11] came to 18700 ng·h/mL; in [12] it was 13800 ng·h/mL. Further, the bioavailability in data set [15] amounted to 60%. Also, in [16], the clearance was 12.1 mL/min/kg. In addition, the inhibition in vivo at 5 mg/kg with NCI-H1581 was found to be 37.8%. Further, in data set [17], the fraction unbound was 0.0044. Further, the IC50 in data set [18] was determined as 128 nM. The Activity result in the data set on Mus musculus [19] and in the data set with Mus musculus [21] was “Toxic” in each case. In the data set with Mus musculus [20], this compound showed a fCmax of 10.2 nM.
